Results on one compound are retold here after patent US12486227B2, “Small molecules for cancer therapy that reduce the expression of transcription factors KLF5 and EGR-1” (University of Florida Research Foundation, Incorporated, priority 2019, dated 2025).

This test concerns KLF5. The test can be described thus: Western blot of KLF5 protein levels in DLD-1 cells. The test is classed as cell-based, human. To be noted: 1 μM and 10 μM, 24 h. The protocol:
In this experiment the test compounds were at 1 μM and 10 μM, and protein levels were measured after 24 h.
Western blot analysis. Total protein was extracted from cells with Laemmli buffer and the analysis was performed as described previously (24).
For orientation: Immunoblotting shows a protein as a band on a membrane.

With `CS(=O)(=O)N1CCN(C(=O)CNC(=O)/C=C/c2ccc(Cl)c(Cl)c2)CC1` [Example 9, (E)-3-(3,4-dichlorophenyl)-N-(2-(4-(methylsulfonyl)piperazin-1-yl)-2-oxoethyl)acrylamide], the “KLF5 protein levels by Western blot” value is listed as “significantly reduced”.
